How the values were obtained:
[1] = system: recombinant NL4-3 virus (nef section replaced with Renilla luciferase gene) in MT-2 cells; experiment: HIV cell culture assay (antiviral activity, luciferase readout); type: cell-based; conditions: MT-2 cells infected for 4-5 days with recombinant NL4-3 luciferase virus
Summary of the method: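 Serially diluted compounds were present throughout a 4-5 day infection of MT-2 cells by recombinant NL4-3 whose nef region partly encodes Renilla luciferase. Antiviral activity was taken from live-cell luciferase signal, with the 50% effective concentration fitted by the exponential median effect equation.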

[2] = Compound cytotoxicity, XTT-based colorimetric assay; type: cell-based; conditions: human, uninfected MT2 cells
Summary of the method: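 XTT colorimetric read-out on day 4 gave CC50 values, using MT2 cells left uninfected but otherwise handled as in the antiviral assay.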

CN(C)S(=O)(=O)c1ccc(-c2cc3[nH]ncc3nc2[C@H](Cc2cc(F)cc(F)c2)NC(=O)Cn2nc(C(F)F)c3c2C(F)(F)[C@@H]2C[C@H]32)cc1 [Example 26, 2-((3bS,4aR)-3-(difluoromethyl)-5,5-difluoro-3b,4,4a,5-tetrahydro-1H-cyclopropa[3,4]cyclopenta[1,2-c]pyrazol-1-yl)-N—((S)-2-(3,5-difluorophenyl)-1-(6-(4-(N,N-dimethylsulfamoyl)phenyl)-1H-pyrazolo[4,3-b]pyridin-5-yl)ethyl)acetamide]
EC50 ([1]; Renilla, NL43, Table 1a): 18.7 nM | CC50 at 4 days ([2]; Table 1a, day 4, XTT): 5010 nM

Cc1cccc2c(=O)n(-c3ccc(Cl)c4c(NS(C)(=O)=O)nn(C)c34)c([C@H](Cc3cc(F)cc(F)c3)NC(=O)Cn3nc(C(F)F)c4c3C(F)(F)[C@@H]3C[C@H]43)nc12 (single isomer, unassigned) [Example 97]
EC50 ([1]; Table 1a): 30.6 nM | CC50 at 4 days ([2]; Table 1a, day 4, XTT): > 1000 nM

Cn1nc(NS(C)(=O)=O)c2c(Cl)ccc(-n3c([C@H](Cc4cc(F)cc(F)c4)NC(=O)Cn4nc(C(F)F)c5c4C(F)(F)[C@@H]4C[C@H]54)nc4cc(C5CC5)ccc4c3=O)c21 (mixture of isomers) [Example 197, N—((S)-1-(3-(4-chloro-1-methyl-3-(methylsulfonamido)-1H-indazol-7-yl)-7-cyclopropyl-4-oxo-3,4-dihydroquinazolin-2-yl)-2-(3,5-difluorophenyl)ethyl)-2-((3bS,4aR)-3-(difluoromethyl)-5,5-difluoro-3b,4,4a,5-tetrahydro-1H-cyclopropa[3,4]cyclopenta[1,2-c]pyrazol-1-yl)acetamide]
EC50 ([1]; Table 1a): 42.6 nM | CC50 at 4 days ([2]; Table 1a, day 4, XTT): > 1000 nM

O=C(Cn1nc(C(F)F)c2c1C(F)(F)[C@@H]1C[C@H]21)NC(Cc1cc(F)cc(F)c1)c1nc2cn[nH]c2cc1-c1ccc(OC(F)F)cc1 (single isomer, unassigned) [Example 3.10]
EC50 ([1]; Renilla, NL43, Table 1): 320 nM | CC50 at 4 days ([2]; Table 1, day 4, XTT): 6800 nM

CN(C)S(=O)(=O)c1ccc(-n2c([C@H](Cc3cc(F)cc(F)c3)NC(=O)Cn3nc(C(F)F)c4c3C(F)(F)[C@@H]3C[C@H]43)nc3ncccc3c2=O)cc1 [Example 32, 2-[(2S,4R)-9-(difluoromethyl)-5,5-difluoro-7,8-diazatricyclo[4.3.0.0^2,4]nona-1(6),8-dien-7-yl]-N-[(1S)-2-(3,5-difluorophenyl)-1-{3-[4-(dimethylsulfamoyl)phenyl]-4-oxo-3H,4H-pyrido[2,3-d]pyrimidin-2-yl}ethyl]acetamide]
EC50 ([1]; Renilla, NL43, Table 1a): 1.1 nM | CC50 at 4 days ([2]; Table 1a, day 4, XTT): > 10000 nM

O=C(Cn1nc(C(F)F)c2c1C(F)(F)[C@@H]1C[C@H]21)N[C@@H](Cc1cc(F)cc(F)c1)c1nc2ccccc2c(=O)n1-c1ccc(S(=O)(=O)N2CCOCC2)cc1 [Example 165, 2-((3bS,4aR)-3-(difluoromethyl)-5,5-difluoro-3b,4,4a,5-tetrahydro-1H-cyclopropa[3,4]cyclopenta[1,2-c]pyrazol-1-yl)-N—((S)-2-(3,5-difluorophenyl)-1-(3-(4-(morpholinosulfonyl)phenyl)-4-oxo-3,4-dihydroquinazolin-2-yl)ethyl)acetamide]
EC50 ([1]; Renilla, NL43, Table 1a): 0.23 nM | CC50 at 4 days ([2]; Table 1a, day 4, XTT): > 10000 nM

Cc1cc(C)c2c(=O)n(-c3ccc(Cl)c4c(NS(C)(=O)=O)nn(C)c34)c(C(Cc3cc(F)cc(F)c3)NC(=O)Cn3nc(C(F)F)c4c3C(F)(F)[C@@H]3C[C@H]43)nc2n1 (mixture of isomers) [Example 42.1]
EC50 ([1]; Renilla, NL43, Table 1a): 12 nM | CC50 at 4 days ([2]; Table 1a, day 4, XTT): > 10000 nM

O=C(Cc1c[nH]c2ccc(O)cc12)N[C@@H](Cc1cc(F)cc(F)c1)c1nc2ccccc2nc1-c1ccc2c(c1)C(=O)NC2 [Example 158, (S)—N-(2-(3,5-difluorophenyl)-1-(3-(3-oxoisoindolin-5-yl)quinoxalin-2-yl)ethyl)-2-(5-hydroxy-1H-indol-3-yl)acetamide]
EC50 ([1]; Renilla, NL43, Table 1a): 102 nM | CC50 at 4 days ([2]; Table 1a, day 4, XTT): > 10000 nM

CC(C)S(=O)(=O)NC(=O)c1cc(-c2cc3[nH]ncc3nc2[C@H](Cc2cc(F)cc(F)c2)NC(=O)Cn2nc(C(F)F)c3c2C(F)(F)[C@@H]2C[C@H]32)ccc1F [Example 10.27, 5-(5-((S)-1-(2-((3bS,4aR)-3-(difluoromethyl)-5,5-difluoro-3b,4,4a,5-tetrahydro-1H-cyclopropa[3,4]cyclopenta[1,2-c]pyrazol-1-yl)acetamido)-2-(3,5-difluorophenyl)ethyl)-1H-pyrazolo[4,3-b]pyridin-6-yl)-2-fluoro-N-(isopropylsulfonyl)benzamide]
EC50 ([1]; Renilla, NL43, Table 1): 820 nM | CC50 at 4 days ([2]; Table 1, day 4, XTT): > 10000 nM

Cn1nc(NS(C)(=O)=O)c2c(Cl)ccc(-n3c([C@H](Cc4cc(F)cc(F)c4)NC(=O)Cn4nc(C(F)F)c5c4C(F)(F)[C@@H]4C[C@H]54)nc4ccc(Cl)c(F)c4c3=O)c21 (single isomer, unassigned) [Example 176]
EC50 ([1]; Table 1a): 0.19 nM | CC50 at 4 days ([2]; Table 1a, day 4, XTT): > 1000 nM

COc1c(F)ccc2c(=O)n(-c3ccc(Cl)c4c(NS(C)(=O)=O)nn(C)c34)c([C@H](Cc3cc(F)cc(F)c3)NC(=O)Cn3ccc(C4CC4)n3)nc12 (single isomer, unassigned) [Example 111]
EC50 ([1]; Table 1a): 92.6 nM | CC50 at 4 days ([2]; Table 1a, day 4, XTT): > 1000 nM

COC(=O)c1cccc(-c2cc3[nH]ncc3nc2[C@H](Cc2cc(F)cc(F)c2)NC(=O)Cn2nc(C(F)F)c3c2C(F)(F)[C@@H]2C[C@H]32)c1 [Example 10.8, Methyl 3-(5-((S)-1-(2-((3bS,4aR)-3-(difluoromethyl)-5,5-difluoro-3b,4,4a,5-tetrahydro-1H-cyclopropa[3,4]cyclopenta[1,2-c]pyrazol-1-yl)acetamido)-2-(3,5-difluorophenyl)ethyl)-1H-pyrazolo[4,3-b]pyridin-6-yl)benzoate]
EC50 ([1]; Renilla, NL43, Table 1): 1200 nM | CC50 at 4 days ([2]; Table 1, day 4, XTT): > 10000 nM

NC(=O)c1cc(-n2c([C@H](Cc3cc(F)cc(F)c3)NC(=O)Cn3nc(C(F)F)c4c3C(F)(F)[C@@H]3C[C@H]43)nc3ncccc3c2=O)ccc1Cl [Example 34, 2-Chloro-5-{2-[(1S)-1-{2-[(2S,4R)-9-(difluoromethyl)-5,5-difluoro-7,8-diazatricyclo[4.3.0.0^2,4]nona-1(6),8-dien-7-yl]acetamido}-2-(3,5-difluorophenyl)ethyl]-4-oxo-3H,4H-pyrido[2,3-d]pyrimidin-3-yl}benzamide]
EC50 ([1]; Renilla, NL43, Table 1a): 6.93 nM | CC50 at 4 days ([2]; Table 1a, day 4, XTT): > 10000 nM

Cn1nc(NS(C)(=O)=O)c2c(Cl)ccc(-n3c([C@H](Cc4cc(F)cc(F)c4)NC(=O)Cn4nc(C(F)F)c5c4CCC5)nc4ncccc4c3=O)c21 (single isomer, unassigned) [Example 46.1]
EC50 ([1]; Renilla, NL43, Table 1a): 10.3 nM | CC50 at 4 days ([2]; Table 1a, day 4, XTT): > 1000 nM

Nc1c(-c2ccc3c(c2)C(=O)NC3)c([C@H](Cc2cc(F)cc(F)c2)NC(=O)Cn2nc(C(F)F)c3c2C(F)(F)[C@@H]2C[C@H]32)nc2ncnn12 [Example 62, N—((S)-1-(7-amino-6-(3-oxoisoindolin-5-yl)-[1,2,4]triazolo[1,5-a]pyrimidin-5-yl)-2-(3,5-difluorophenyl)ethyl)-2-((3bS,4aR)-3-(difluoromethyl)-5,5-difluoro-3b,4,4a,5-tetrahydro-1H-cyclopropa[3,4]cyclopenta[1,2-c]pyrazol-1-yl)acetamide]
EC50 ([1]; Renilla, NL43, Table 1a): 86.3 nM | CC50 at 4 days ([2]; Table 1a, day 4, XTT): > 10000 nM

Cn1nc(NS(C)(=O)=O)c2c(Cl)ccc(-n3c([C@H](Cc4cc(F)cc(F)c4)NC(=O)Cn4nc(C(F)F)c5c4C(F)(F)[C@@H]4C[C@H]54)nc4cc(C(C)(C)C)ccc4c3=O)c21 (mixture of isomers) [Example 215, N—((S)-1-(7-(tert-Butyl)-3-(4-chloro-1-methyl-3-(methylsulfonamido)-1H-indazol-7-yl)-4-oxo-3,4-dihydroquinazolin-2-yl)-2-(3,5-difluorophenyl)ethyl)-2-((3bS,4aR)-3-(difluoromethyl)-5,5-difluoro-3b,4,4a,5-tetrahydro-1H-cyclopropa[3,4]cyclopenta[1,2-c]pyrazol-1-yl)acetamide]
EC50 ([1]; Table 1a): 354 nM | CC50 at 4 days ([2]; Table 1a, day 4, XTT): > 1000 nM

CS(=O)(=O)Nc1nn(CC(F)(F)F)c2c(-c3cc4[nH]ncc4nc3[C@H](Cc3cc(F)cc(F)c3)NC(=O)Cn3nc(C(F)F)c4c3C(F)(F)[C@@H]3C[C@H]43)ccc(Cl)c12 (single isomer, unassigned) [Example 94]
EC50 ([1]; Renilla, NL43, Table 1a): 0.146 nM | CC50 at 4 days ([2]; Table 1a, day 4, XTT): > 1000 nM

COc1ccc2c(=O)n(-c3cccc4c(NS(C)(=O)=O)nn(C)c34)c([C@H](Cc3cc(F)cc(F)c3)NC(=O)Cn3nc(C(F)F)c4c3C(F)(F)[C@@H]3C[C@H]43)nc2c1 (single isomer, unassigned) [Example 80]
EC50 ([1]; Renilla, NL43, Table 1a): 0.389 nM | CC50 at 4 days ([2]; Table 1a, day 4, XTT): > 1000 nM

O=C(Cn1nc(C(F)F)c2c1C(F)(F)[C@@H]1C[C@H]21)N[C@@H](Cc1cc(F)cc(F)c1)c1nc2ncccc2c(=O)n1-c1ccc2scnc2c1 [Example 10.24]
EC50 ([1]; Renilla, NL43, Table 1): 1.7 nM | CC50 at 4 days ([2]; Table 1, day 4, XTT): > 10000 nM

Cn1nc(NS(C)(=O)=O)c2c(Cl)ccc(-c3cc4ccccc4nc3C(Cc3cc(F)cc(F)c3)NC(=O)Cn3nc(C(F)F)c4c3C(F)(F)[C@@H]3C[C@H]43)c21 (single isomer, unassigned) [Example 8.1]
EC50 ([1]; Table 1): 0.2 nM | CC50 at 4 days ([2]; Table 1, day 4, XTT): > 10000 nM

O=C(Cn1nc(C(F)F)c2c1C(F)(F)[C@@H]1C[C@H]21)NC(Cc1cc(F)cc(F)c1)c1nc2cn[nH]c2cc1-c1ccc(C2CC2)cc1 (single isomer, unassigned) [Example 3.11]
EC50 ([1]; Renilla, NL43, Table 1): 670 nM | CC50 at 4 days ([2]; Table 1, day 4, XTT): 4200 nM

CC(C)c1ccc(-n2c([C@H](Cc3cc(F)cc(F)c3)NC(=O)Cn3nc(C(F)F)c4c3C(F)(F)[C@@H]3C[C@H]43)nc3ncccc3c2=O)cn1 [Example 10.37]
EC50 ([1]; Renilla, NL43, Table 1): 4.8 nM | CC50 at 4 days ([2]; Table 1, day 4, XTT): 6900 nM

Cn1nc(NS(C)(=O)=O)c2c(Cl)ccc(-n3c([C@H](Cc4cc(F)cc(F)c4)NC(=O)Cn4ccc(C5CC5)n4)nc4cc(C(C)(C)S(C)(=O)=O)ccc4c3=O)c21 (single isomer, unassigned) [Example 212]
EC50 ([1]; Renilla, NL43, Table 1a): 0.63 nM | CC50 at 4 days ([2]; Table 1a, day 4, XTT): > 1000 nM

From US10954252B1, “Inhibitors of human immunodeficiency virus replication” (ViiV HEALTHCARE UK (NO.5) LIMITED, priority 2017, dated 2021)
